Like-named read-outs stand apart in the source and are kept apart here.
Test system: wild-type HIV-1 strain IIIB
Assay: microbe, parasite or virus in culture
Type: cell-based
[1] = Human immunodeficiency virus 1, IIIB
[2] = read-out: Anti-HIV-1 Cell Culture Activity EC50
[3] = Human immunodeficiency virus 1, IIIB, class symbols

| Structure (SMILES) | EC50 [1] [nM] | other results |
| --- | --- | --- |
| Cc1ccc(C(=O)NC(Cc2ccc(OCP(=O)(OCc3ccccc3)OCc3ccccc3)cc2)C(O)CN(CC(C)C)S(=O)(=O)c2ccc(N)cc2)cc1O (centres unmarked) | 50 to 500 | – |
| CCOP(=O)(COc1cc(S(=O)(=O)N(CC(C)C)CC(O)C(Cc2ccccc2)NC(=O)OC2COC3OCCC23)ccc1O)OCC (centres unmarked) | 50 to 500 | – |
| COc1ccc(S(=O)(=O)N(CC(C)C)CC(O)C(Cc2ccc(NCP(=O)(OCc3ccccc3)OCc3ccccc3)cc2)NC(=O)OC2COC3OCCC23)cc1 (centres unmarked) | < 50 | – |
| CC(C)CN(CC(O)C(Cc1ccc(OCP(=O)(OCc2ccccc2)OCc2ccccc2)cc1)NC(=O)OC1COC2OCCC12)S(=O)(=O)c1ccc(F)cc1 (centres unmarked) | < 50 | – |
| CCOP(=O)(CCN1CCN(CC(NC(=O)OC2COC3OCCC23)C(O)CN(CC(C)C)S(=O)(=O)c2ccc(OC)cc2)CC1)OCC (centres unmarked) | 50 to 500 | – |
| CC(C)CN(CC(O)C(Cc1ccc(OCP(=O)(OCc2ccccc2)OCc2ccccc2)cc1)NC(=O)OC1COC2OCCC12)S(=O)(=O)c1ccccc1 (centres unmarked) | < 50 | – |
| CCNc1ccc(S(=O)(=O)N(CC(C)C)CC(O)C(Cc2ccc(OCP(=O)(OCC)OCC)cc2)NC(=O)OC2COC3OCCC23)cc1 (centres unmarked) | < 50 | – |
| CCOP(=O)(COc1ccc(S(=O)(=O)N(CC(C)C)CC(O)C(Cc2ccc(N(C)C)cc2)NC(=O)OC2COC3OCCC23)cc1)OCC (centres unmarked) [NMe2, OEt] | < 50 | – |
| COc1ccc(S(=O)(=O)N(CC(C)C)CC(O)C(CNc2ccc(CP(=O)(OCc3ccccc3)OCc3ccccc3)cc2)NC(=O)OC2COC3OCCC23)cc1 (centres unmarked) | < 50 | – |
| CC(C)CN(CC(O)C(Cc1ccc(OCP(=O)(OCc2ccccc2)OCc2ccccc2)cc1)NC(=O)OC1COC2OCCC12)S(=O)(=O)c1ccc(N)cc1 (centres unmarked) | < 50 | – |
| CCOP(=O)(Cc1ccc2c(c1)CCN(CC(NC(=O)OC1COC3OCCC13)C(O)CN(CC(C)C)S(=O)(=O)c1ccc(OC)cc1)C2)OCC (centres unmarked) | < 50 | – |
| COc1ccc(S(=O)(=O)N(CC(C)C)CC(O)C(Cc2ccc(NCP(=O)(NC(C)C(=O)OC(C)C)Oc3ccccc3)cc2)NC(=O)OC2COC3OCCC23)cc1 (centres unmarked) [drawing 1822] | – | EC50 (class symbols): < 50 nM |
| COc1ccc(S(=O)(=O)N(CC(C)C)CC(O)C(Cc2ccccc2)NC(=O)OC2COC3OCCC23)cc1OCP(=O)(O)O (centres unmarked) | 50 to 500 | – |
| COc1ccc(S(=O)(=O)N(CC2CCN(C=O)CC2)CC(O)C(Cc2ccc(OCP(=O)(OCc3ccccc3)OCc3ccccc3)cc2)NC(=O)OC2COC3OCCC23)cc1 (centres unmarked) | 50 to 500 | – |
| CC(C)CN(C[C@@H](OP(=O)(O)O)[C@H](Cc1ccccc1)NC(=O)O[C@H]1CCOC1)S(=O)(=O)c1ccc(N)cc1 [Phosphate Prodrug of Ampenavir] | 50 to 500 | – |
| CC(C)CN(CC(O)C(Cc1ccc(OCCN(C)C)cc1)NC(=O)OC1COC2OCCC12)S(=O)(=O)c1ccc(OCP(=O)(OCc2ccccc2)OCc2ccccc2)cc1 (centres unmarked) [OC2H4—NMe2, OBn] | 50 to 500 | – |
| CCOP(=O)(CCC1=CCN(CC(NC(=O)OC2COC3OCCC23)C(O)CN(CC(C)C)S(=O)(=O)c2ccc(OC)cc2)CC1)OCC (centres unmarked) | < 50 | – |
| COc1ccc(S(=O)(=O)N(CC(C)C)CC(O)C(CC2=CCN(CCP(=O)(OCc3ccccc3)OCc3ccccc3)CC2)NC(=O)OC2COC3OCCC23)cc1 (centres unmarked) | < 50 | – |
| CC(C)CN(CC(O)C(Cc1ccc(OCP(=O)(OCc2ccccc2)OCc2ccccc2)cc1)NC(=O)OC1COC2OCCC12)S(=O)(=O)c1cccc(N)c1 (centres unmarked) | < 50 | – |
| COc1ccc(S(=O)(=O)N(CC(C)C)C[C@@H](OP(=O)(O)O)[C@H](Cc2ccccc2)NC(=O)O[C@H]2CO[C@H]3OCC[C@H]32)cc1 [Phosphate Prodrug of 94-003] | < 50 | – |

| Structure (SMILES) | EC50 [1] [nM] | other results |
| --- | --- | --- |
| CCCCOC(=O)C(CC(C)C)NP(=O)(COc1ccc(CC(NC(=O)OC2COC3OCCC23)C(O)CN(CC(C)C)S(=O)(=O)c2ccc(OC)cc2)cc1)NC(CC(C)C)C(=O)OCCCC (centres unmarked) [Example 16h] | – | EC50 [2]: 120 ± 42 nM |
| COc1ccc(S(=O)(=O)N(CC(C)C)CC(O)C(Cc2ccccc2)NC(=O)OC2COC3OCCC23)cc1O (centres unmarked) | < 50 | – |
| CCOP(=O)(Cc1ccc(NCC(NC(=O)OC2COC3OCCC23)C(O)CN(CC(C)C)S(=O)(=O)c2ccc(OC)cc2)cc1)OCC (centres unmarked) | < 50 | – |
| CCOP(=O)(Cc1ccc(N(C)CC(NC(=O)OC2COC3OCCC23)C(O)CN(CC(C)C)S(=O)(=O)c2ccc(OC)cc2)cc1)OCC (centres unmarked) | < 50 | – |
| CCOP(=O)(COc1ccc(CC(NC(=O)OC2COC3OCCC23)C(O)CN(CC(C)C)S(=O)(=O)c2ccc(N)cc2)cc1)OCC (centres unmarked) | < 50 | – |
| CCOP(=O)(CN1CC=C(CC(NC(=O)OC2COC3OCCC23)C(O)CN(CC(C)C)S(=O)(=O)c2ccc(OC)cc2)CC1)OCC (centres unmarked) | < 50 | – |
| CCCCOC(=O)CNP(=O)(COc1ccc(CC(NC(=O)OC2COC3OCCC23)C(O)CN(CC(C)C)S(=O)(=O)c2ccc(OC)cc2)cc1)NCC(=O)OCCCC (centres unmarked) [Compound 16b] | – | EC50 (Human immunodeficiency virus 1, IIIB, MT2, 120 h, read-out: Anti-HIV-1 Cell Culture Activity EC50): 17.5 ± 10.5 nM |
| CC(C)CN(CC(O)C(Cc1ccccc1)NC(=O)OC1COC2OCCC12)S(=O)(=O)c1ccc(O)cc1 (centres unmarked) | < 50 | – |
| COc1ccc(S(=O)(=O)N(CCN2CCOCC2)CC(O)C(Cc2ccc(OCP(=O)(OCc3ccccc3)OCc3ccccc3)cc2)NC(=O)OC2COC3OCCC23)cc1 (centres unmarked) | 50 to 500 | – |
| CC(C)CN(CC(O)C(Cc1ccc(O)cc1)NC(=O)OC1COC2OCCC12)S(=O)(=O)c1cccc(N)c1 (centres unmarked) [OH, m-NH2] | 50 to 500 | – |
| COC(=O)C(C)OP(=O)(COc1ccc(CC(NC(=O)OC2COC3OCCC23)C(O)CN(CC(C)C)S(=O)(=O)c2ccc(OC)cc2)cc1)Oc1ccccc1 [drawing 1775 R1=OPh R2=(R)Lac-Me] | – | EC50 [3]: < 50 nM |
| CC(C)CN(CC(O)C(Cc1ccc(OCCN(C)C)cc1)NC(=O)OC1COC2OCCC12)S(=O)(=O)c1ccc(OCP(=O)(O)O)cc1 (centres unmarked) [OC2H4NMe2, OH] | 500 to 5000 | – |
| COc1ccc(S(=O)(=O)N(CC(C)C)CC(O)C(CC2=CCN(CCP(=O)(OC)OC)CC2)NC(=O)OC2COC3OCCC23)cc1 (centres unmarked) | 50 to 500 | – |
| CCOP(=O)(COc1ccc(CC(NC(=O)OC2COC3OCCC23)C(O)CN(CC(C)C)S(=O)(=O)c2ccc([N+](=O)[O-])cc2)cc1)OCC (centres unmarked) | < 50 | – |
| CC(C)CN(CC(O)C(Cc1ccccc1)NC(=O)OC1COC2OCCC12)S(=O)(=O)c1cccc(OCP(=O)(O)O)c1 (centres unmarked) | 50 to 500 | – |
| CCOP(=O)(CNc1ccc(CC(NC(=O)OC2COC3OCCC23)C(O)CN(CC(C)C)S(=O)(=O)c2ccc(OC)cc2)cc1)OCC (centres unmarked) | < 50 | – |
| CCOC(=O)C(C)OP(=O)(O)COc1ccc(CC(NC(=O)OC2COC3OCCC23)C(O)CN(CC(C)C)S(=O)(=O)c2ccc(OC)cc2)cc1 (centres unmarked) [Met LX] | – | EC50 [2]: 1750 ± 354 nM |
| CC(C)CN(CC(O)C(Cc1ccc(OCP(=O)(OCc2ccccc2)OCc2ccccc2)cc1)NC(=O)OC1COC2OCCC12)S(=O)(=O)c1ccc(C#N)cc1 (centres unmarked) | < 50 | – |
| CC(C)CN(CC(O)C(Cc1ccc(OCP(=O)(OCc2ccccc2)OCc2ccccc2)cc1)NC(=O)OC1COC2OCCC12)S(=O)(=O)N1CCN(C)CC1 (centres unmarked) | 50 to 500 | – |
| CCCCOC(=O)C(C)OP(=O)(COc1ccc(CC(NC(=O)OC2COC3OCCC23)C(O)CN(CC(C)C)S(=O)(=O)c2cccc(N)c2)cc1)Oc1ccccc1 (centres unmarked) | 50 to 500 | – |

| Structure (SMILES) | EC50 [1] [nM] | other results |
| --- | --- | --- |
| CC(C)CN(CC(O)C(Cc1ccc(OCP(=O)(OCc2ccccc2)OCc2ccccc2)cc1)NC(=O)OC1COC2OCCC12)S(=O)(=O)c1ccc(OC(F)(F)F)cc1 (centres unmarked) | < 50 | – |
| CCOC(=O)C(C)OP(=O)(COc1ccc2c(c1)CCN(CC(NC(=O)OC1COC3OCCC13)C(O)CN(CC(C)C)S(=O)(=O)c1ccc(OC)cc1)C2)Oc1ccccc1 (centres unmarked) | – | EC50 [3]: 50 to 500 nM |
| CC(C)CN(CC(O)C(Cc1ccc(OCP(=O)(OCc2ccccc2)OCc2ccccc2)cc1)NC(=O)OC1COC2OCCC12)S(=O)(=O)c1ccc(C(F)(F)F)cc1 (centres unmarked) | < 50 | – |
| COc1ccc(S(=O)(=O)N(CC(C)C)CC(O)C(Cc2ccc(OCP(=O)(OCc3ccccc3)OC(C)C(=O)OCc3ccccc3)cc2)NC(=O)OC2COC3OCCC23)cc1 (centres unmarked) [drawing 1775 R1=OBn R2=Lac-Bn] | 50 to 500 | – |
| CCOP(=O)(CCNCc1ccc(CC(NC(=O)OC2COC3OCCC23)C(O)CN(CC(C)C)S(=O)(=O)c2ccc(OC)cc2)cc1)OCC (centres unmarked) [drawing 1779 R1=Et R2=Et] | < 50 | – |
| CCOP(=O)(COc1ccc(CC(NC(=O)OC2COC3OCCC23)C(O)CN(CC(C)C)S(=O)(=O)c2cccc(N)c2)cc1)OCC (centres unmarked) | 50 to 500 | – |
| CC(C)CN(CC(O)C(Cc1ccc(OCP(=O)(OCc2ccccc2)OCc2ccccc2)cc1)NC(=O)OC1COC2OCCC12)C(=O)OC(C)(C)C (centres unmarked) | 50 to 500 | – |
| CCOP(=O)(COC1CCN(CC(NC(=O)OC2COC3OCCC23)C(O)CN(CC(C)C)S(=O)(=O)c2ccc(OC)cc2)CC1)OCC (centres unmarked) | 50 to 500 | – |
| CC(C)CN(C[C@@H](O)[C@H](Cc1ccccc1)NC(=O)O[C@H]1CO[C@H]2OCC[C@H]21)S(=O)(=O)c1ccc(OCP(=O)(Oc2ccccc2)O[C@@H](C)C(=O)OC(C)C)cc1 (some centres unmarked) [OPh, Lac-iPr] | 500 to 5000 | – |
| COc1ccc(S(=O)(=O)N(CC(C)C)CC(O)C(Cc2ccc(OCP(=O)(O)NC(C)C(=O)O)cc2)NC(=O)OC2COC3OCCC23)cc1 (centres unmarked) [Met X] | – | EC50 [2]: > 10000 nM |
| COc1ccc(S(=O)(=O)N(CC(C)C)CC(O)C(Cc2ccc(P(=O)(O)O)cc2)NC(=O)OC2COC3OCCC23)cc1 (centres unmarked) [drawing 1770 R1=OH R2=OH] | > 5000 | – |
| COc1ccc(S(=O)(=O)N(CC(C)C)CC(O)C(Cc2ccc(NCP(=O)(NC(C)C(=O)OC(C)C)Oc3ccccc3)cc2)NC(=O)OC2COC3OCCC23)cc1 (centres unmarked) [drawing 1820] | – | EC50 [3]: < 50 nM |
| COc1ccc(S(=O)(=O)N(CC(C)C)CC(O)C(Cc2ccc(NCP(=O)(NC(C)C(=O)OC(C)C)Oc3ccccc3)cc2)NC(=O)OC2COC3OCCC23)cc1 (centres unmarked) [drawing 1821] | – | EC50 (class symbols): 50 to 500 nM |
| CCOP(=O)(CON=Cc1ccc(CC(NC(=O)OC2COC3OCCC23)C(O)CN(CC(C)C)S(=O)(=O)c2ccc(OC)cc2)cc1)OCC (centres unmarked) [drawing 1781 R1=Et R2=Et] | < 50 | – |
| CC(C)CN(CC(O)C(Cc1ccc(O)cc1)NC(=O)OC1COC2OCCC12)S(=O)(=O)c1ccc(N)cc1 (centres unmarked) [OH, p-NH2] | 50 to 500 | – |
| CCOC(=O)C(Cc1ccccc1)NP(=O)(COc1ccc(CC(NC(=O)OC2COC3OCCC23)C(O)CN(CC(C)C)S(=O)(=O)c2ccc(OC)cc2)cc1)NC(Cc1ccccc1)C(=O)OCC (centres unmarked) [Example 16i] | – | EC50 [2]: 17 ± 12 nM |
| CCOP(=O)(COc1cc(S(=O)(=O)N(CC(C)C)CC(O)C(Cc2ccccc2)NC(=O)OC2COC3OCCC23)ccc1OC)OCC (centres unmarked) | 50 to 500 | – |
| COc1ccc(S(=O)(=O)N(CC(C)C)CC(O)C(Cc2ccc(OCc3ccccc3)cc2)NC(=O)OC2COC3OCCC23)cc1 (centres unmarked) | < 50 | – |
| CC(C)CN(CC(O)C(Cc1ccccc1)NC(=O)OC1COC2OCCC12)S(=O)(=O)c1cccc(O)c1 (centres unmarked) | < 50 | – |
